Reference: article PMC6591251, “Discovery of potent necroptosis inhibitors targeting RIPK1 kinase activity for the treatment of inflammatory disorder and cancer metastasis” (Cell Death & Disease, 2019)

What was measured:
Assay in all cases: RBC kinase panel
Assay type in all cases: biochemical
Details in all cases: ATP 10 μM, Data1, Data2
ALK3/BMPR1A = target: T1, ALK3/BMPR1A (Homo sapiens, UniProt P36894)
T1 construct: purchased Reaction Biology Corporation
Method in brief: (§1)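 ATP was held at 10 μM in all reactions while the compound, at 1 μM, was profiled against 369 human kinases; each measurement was run twice.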

ARAF = target: T2, ARAF (Homo sapiens, UniProt P10398)
T2 construct: purchased Reaction Biology Corporation
Method in brief: as §1

BRSK2 = target: T3, BRSK2 (Homo sapiens, UniProt Q8IWQ3)
T3 construct: purchased Reaction Biology Corporation
Method in brief: as §1

CAMKK1 = target: T4, CAMKK1 (Homo sapiens, UniProt Q8N5S9)
T4 construct: purchased Reaction Biology Corporation
Method in brief: as §1

CDK19/cyclin C = target: T5, CDK19/cyclin C (Homo sapiens, UniProt Q9BWU1)
T5 construct: purchased Reaction Biology Corporation
Method in brief: as §1

CDK9/cyclin T2 = target: T6, CDK9/cyclin T2 (Homo sapiens, UniProt P50750)
T6 construct: purchased Reaction Biology Corporation
Method in brief: as §1

CK1a1L = target: T7, CK1a1L (Homo sapiens, UniProt Q8N752)
T7 construct: purchased Reaction Biology Corporation
Method in brief: as §1

DAPK1 = target: T8, DAPK1 (Homo sapiens, UniProt P53355)
T8 construct: purchased Reaction Biology Corporation
Method in brief: as §1

DLK/MAP3K12 = target: T9, DLK/MAP3K12 (Homo sapiens, UniProt Q12852)
T9 construct: purchased Reaction Biology Corporation
Method in brief: as §1

DMPK2 = target: T10, DMPK2 (Homo sapiens, UniProt Q6DT37)
T10 construct: purchased Reaction Biology Corporation
Method in brief: as §1

FLT1/VEGFR1 = target: T11, FLT1/VEGFR1 (Homo sapiens, UniProt P17948)
T11 construct: purchased Reaction Biology Corporation
Method in brief: as §1

IRAK1 = target: T12, IRAK1 (Homo sapiens, UniProt P51617)
T12 construct: purchased Reaction Biology Corporation
Method in brief: as §1

JNK2 = target: T13, JNK2 (Homo sapiens, UniProt P45984)
T13 construct: purchased Reaction Biology Corporation
Method in brief: as §1

MAPKAPK5/PRAK = target: T14, MAPKAPK5/PRAK (Homo sapiens, UniProt Q8IW41)
T14 construct: purchased Reaction Biology Corporation
Method in brief: as §1

MLCK/MYLK = target: T15, MLCK/MYLK (Homo sapiens, UniProt Q15746)
T15 construct: purchased Reaction Biology Corporation
Method in brief: as §1

MNK1 = target: T16, MNK1 (Homo sapiens, UniProt Q9BUB5)
T16 construct: purchased Reaction Biology Corporation
Method in brief: as §1

MSK2/RPS6KA4 = target: T17, MSK2/RPS6KA4 (Homo sapiens, UniProt O75676)
T17 construct: purchased Reaction Biology Corporation
Method in brief: as §1

MST4 = target: T18, MST4 (Homo sapiens, UniProt Q9P289)
T18 construct: purchased Reaction Biology Corporation
Method in brief: as §1

NEK5 = target: T19, NEK5 (Homo sapiens, UniProt Q6P3R8)
T19 construct: purchased Reaction Biology Corporation
Method in brief: as §1

PHKg1 = target: T20, PHKg1 (Homo sapiens, UniProt Q16816)
T20 construct: purchased Reaction Biology Corporation
Method in brief: as §1

PKCepsilon = target: T21, PKCepsilon (Homo sapiens, UniProt Q02156)
T21 construct: purchased Reaction Biology Corporation
Method in brief: as §1

PKCeta = target: T22, PKCeta (Homo sapiens, UniProt P24723)
T22 construct: purchased Reaction Biology Corporation
Method in brief: as §1

PKG1a = target: T23, PKG1a (Homo sapiens, UniProt Q13976)
T23 construct: purchased Reaction Biology Corporation
Method in brief: as §1

PKN1/PRK1 = target: T24, PKN1/PRK1 (Homo sapiens, UniProt Q16512)
T24 construct: purchased Reaction Biology Corporation
Method in brief: as §1

RIPK3 = target: T25, RIPK3 (Homo sapiens, UniProt Q9Y572)
T25 construct: purchased Reaction Biology Corporation
Method in brief: as §1

RIPK4 = target: T26, RIPK4 (Homo sapiens, UniProt P57078)
T26 construct: purchased Reaction Biology Corporation
Method in brief: as §1

RON/MST1R = target: T27, RON/MST1R (Homo sapiens, UniProt Q04912)
T27 construct: purchased Reaction Biology Corporation
Method in brief: as §1

ROS/ROS1 = target: T28, ROS/ROS1 (Homo sapiens, UniProt P08922)
T28 construct: purchased Reaction Biology Corporation
Method in brief: as §1

SNARK/NUAK2 = target: T29, SNARK/NUAK2 (Homo sapiens, UniProt Q9H093)
T29 construct: purchased Reaction Biology Corporation
Method in brief: as §1

SRMS = target: T30, SRMS (Homo sapiens, UniProt Q9H3Y6)
T30 construct: purchased Reaction Biology Corporation
Method in brief: as §1

SRPK1 = target: T31, SRPK1 (Homo sapiens, UniProt Q96SB4)
T31 construct: purchased Reaction Biology Corporation
Method in brief: as §1

VRK2 = target: T32, VRK2 (Homo sapiens, UniProt Q86Y07)
T32 construct: purchased Reaction Biology Corporation
Method in brief: as §1

ZAK/MLTK = target: T33, ZAK/MLTK (Homo sapiens, UniProt Q9NYL2)
T33 construct: purchased Reaction Biology Corporation
Method in brief: as §1

T29 sequence (Q9H093 whole entry): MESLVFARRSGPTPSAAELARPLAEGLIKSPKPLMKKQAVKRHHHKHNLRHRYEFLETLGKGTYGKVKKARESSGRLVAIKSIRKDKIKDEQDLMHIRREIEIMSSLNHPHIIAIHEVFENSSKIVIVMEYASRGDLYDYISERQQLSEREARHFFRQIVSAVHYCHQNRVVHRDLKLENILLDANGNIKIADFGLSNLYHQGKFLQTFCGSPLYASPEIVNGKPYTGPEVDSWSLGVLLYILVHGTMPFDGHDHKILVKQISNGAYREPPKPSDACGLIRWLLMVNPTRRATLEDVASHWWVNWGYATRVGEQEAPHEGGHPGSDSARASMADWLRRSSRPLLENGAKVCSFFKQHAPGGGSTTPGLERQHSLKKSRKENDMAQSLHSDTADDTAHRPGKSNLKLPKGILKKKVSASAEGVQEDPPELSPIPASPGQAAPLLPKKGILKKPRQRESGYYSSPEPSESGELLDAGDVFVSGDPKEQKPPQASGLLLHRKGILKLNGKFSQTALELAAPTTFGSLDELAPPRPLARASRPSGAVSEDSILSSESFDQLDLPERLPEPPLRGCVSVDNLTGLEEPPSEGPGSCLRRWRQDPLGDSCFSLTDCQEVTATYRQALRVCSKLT
T8 sequence (P53355 whole entry): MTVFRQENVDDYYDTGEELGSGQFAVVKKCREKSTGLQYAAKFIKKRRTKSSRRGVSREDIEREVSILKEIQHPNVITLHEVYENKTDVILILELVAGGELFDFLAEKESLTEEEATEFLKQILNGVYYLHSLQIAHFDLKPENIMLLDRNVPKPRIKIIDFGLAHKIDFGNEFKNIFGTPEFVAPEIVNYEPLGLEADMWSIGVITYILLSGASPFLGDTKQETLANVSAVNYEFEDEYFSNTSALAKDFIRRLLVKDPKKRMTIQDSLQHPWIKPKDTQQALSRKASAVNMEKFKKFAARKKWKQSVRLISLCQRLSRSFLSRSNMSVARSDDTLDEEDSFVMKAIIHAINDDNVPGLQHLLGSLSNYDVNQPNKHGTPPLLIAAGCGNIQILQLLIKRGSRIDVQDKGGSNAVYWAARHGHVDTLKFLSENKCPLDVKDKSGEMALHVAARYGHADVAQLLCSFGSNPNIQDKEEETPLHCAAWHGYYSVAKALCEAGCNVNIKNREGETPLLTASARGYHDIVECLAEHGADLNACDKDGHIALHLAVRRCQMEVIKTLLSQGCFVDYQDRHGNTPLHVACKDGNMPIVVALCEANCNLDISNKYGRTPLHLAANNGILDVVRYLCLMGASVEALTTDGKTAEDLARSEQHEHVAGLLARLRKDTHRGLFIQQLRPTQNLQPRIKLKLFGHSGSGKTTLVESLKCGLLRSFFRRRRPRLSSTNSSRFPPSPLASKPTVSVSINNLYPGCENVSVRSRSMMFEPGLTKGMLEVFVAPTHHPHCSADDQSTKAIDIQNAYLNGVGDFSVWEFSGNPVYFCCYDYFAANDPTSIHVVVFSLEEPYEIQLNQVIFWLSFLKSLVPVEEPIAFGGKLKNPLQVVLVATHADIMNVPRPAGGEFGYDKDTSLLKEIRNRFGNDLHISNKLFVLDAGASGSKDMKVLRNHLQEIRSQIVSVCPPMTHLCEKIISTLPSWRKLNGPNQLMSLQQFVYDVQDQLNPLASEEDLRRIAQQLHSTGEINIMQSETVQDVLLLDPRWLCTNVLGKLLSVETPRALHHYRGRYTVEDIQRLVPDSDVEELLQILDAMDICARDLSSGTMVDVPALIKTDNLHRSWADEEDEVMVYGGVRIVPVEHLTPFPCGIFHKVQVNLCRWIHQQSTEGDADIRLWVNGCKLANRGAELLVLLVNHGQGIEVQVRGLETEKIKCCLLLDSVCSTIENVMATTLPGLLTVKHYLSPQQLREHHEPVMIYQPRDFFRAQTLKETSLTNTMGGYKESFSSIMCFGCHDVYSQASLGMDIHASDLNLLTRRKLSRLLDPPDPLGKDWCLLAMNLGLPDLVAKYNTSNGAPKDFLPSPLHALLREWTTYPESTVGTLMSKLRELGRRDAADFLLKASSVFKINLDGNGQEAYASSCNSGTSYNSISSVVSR
T2 sequence (P10398 whole entry): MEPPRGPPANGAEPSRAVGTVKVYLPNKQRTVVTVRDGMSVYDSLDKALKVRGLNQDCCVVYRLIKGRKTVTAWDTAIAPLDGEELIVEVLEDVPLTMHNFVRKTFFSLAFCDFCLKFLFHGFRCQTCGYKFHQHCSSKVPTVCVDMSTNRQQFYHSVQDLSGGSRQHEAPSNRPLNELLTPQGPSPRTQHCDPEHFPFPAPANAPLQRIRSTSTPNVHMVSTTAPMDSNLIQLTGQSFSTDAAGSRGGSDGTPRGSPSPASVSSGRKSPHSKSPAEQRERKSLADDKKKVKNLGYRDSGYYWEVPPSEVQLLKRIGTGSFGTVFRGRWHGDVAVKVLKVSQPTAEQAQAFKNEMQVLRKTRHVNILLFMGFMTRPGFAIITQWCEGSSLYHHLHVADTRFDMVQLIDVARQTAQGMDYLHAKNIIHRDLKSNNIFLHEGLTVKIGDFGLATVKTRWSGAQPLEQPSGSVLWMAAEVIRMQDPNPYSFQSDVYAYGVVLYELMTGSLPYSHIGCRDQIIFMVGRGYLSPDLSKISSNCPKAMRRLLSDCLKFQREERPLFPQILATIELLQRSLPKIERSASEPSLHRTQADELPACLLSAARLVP
T32 sequence (Q86Y07 whole entry): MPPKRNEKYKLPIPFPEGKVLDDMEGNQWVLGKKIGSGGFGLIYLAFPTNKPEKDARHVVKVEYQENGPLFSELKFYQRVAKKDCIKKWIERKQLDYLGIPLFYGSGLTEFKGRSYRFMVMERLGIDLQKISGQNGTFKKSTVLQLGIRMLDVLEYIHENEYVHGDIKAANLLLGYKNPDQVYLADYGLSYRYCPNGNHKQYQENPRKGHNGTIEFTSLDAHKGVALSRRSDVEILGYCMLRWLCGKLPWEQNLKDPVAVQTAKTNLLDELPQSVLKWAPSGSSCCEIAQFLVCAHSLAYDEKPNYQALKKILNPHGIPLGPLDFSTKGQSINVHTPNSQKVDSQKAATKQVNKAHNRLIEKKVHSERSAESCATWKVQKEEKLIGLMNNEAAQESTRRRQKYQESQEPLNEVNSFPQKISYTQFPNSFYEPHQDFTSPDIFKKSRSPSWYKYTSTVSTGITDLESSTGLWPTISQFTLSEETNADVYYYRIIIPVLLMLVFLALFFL
T27 sequence (Q04912 25-1400): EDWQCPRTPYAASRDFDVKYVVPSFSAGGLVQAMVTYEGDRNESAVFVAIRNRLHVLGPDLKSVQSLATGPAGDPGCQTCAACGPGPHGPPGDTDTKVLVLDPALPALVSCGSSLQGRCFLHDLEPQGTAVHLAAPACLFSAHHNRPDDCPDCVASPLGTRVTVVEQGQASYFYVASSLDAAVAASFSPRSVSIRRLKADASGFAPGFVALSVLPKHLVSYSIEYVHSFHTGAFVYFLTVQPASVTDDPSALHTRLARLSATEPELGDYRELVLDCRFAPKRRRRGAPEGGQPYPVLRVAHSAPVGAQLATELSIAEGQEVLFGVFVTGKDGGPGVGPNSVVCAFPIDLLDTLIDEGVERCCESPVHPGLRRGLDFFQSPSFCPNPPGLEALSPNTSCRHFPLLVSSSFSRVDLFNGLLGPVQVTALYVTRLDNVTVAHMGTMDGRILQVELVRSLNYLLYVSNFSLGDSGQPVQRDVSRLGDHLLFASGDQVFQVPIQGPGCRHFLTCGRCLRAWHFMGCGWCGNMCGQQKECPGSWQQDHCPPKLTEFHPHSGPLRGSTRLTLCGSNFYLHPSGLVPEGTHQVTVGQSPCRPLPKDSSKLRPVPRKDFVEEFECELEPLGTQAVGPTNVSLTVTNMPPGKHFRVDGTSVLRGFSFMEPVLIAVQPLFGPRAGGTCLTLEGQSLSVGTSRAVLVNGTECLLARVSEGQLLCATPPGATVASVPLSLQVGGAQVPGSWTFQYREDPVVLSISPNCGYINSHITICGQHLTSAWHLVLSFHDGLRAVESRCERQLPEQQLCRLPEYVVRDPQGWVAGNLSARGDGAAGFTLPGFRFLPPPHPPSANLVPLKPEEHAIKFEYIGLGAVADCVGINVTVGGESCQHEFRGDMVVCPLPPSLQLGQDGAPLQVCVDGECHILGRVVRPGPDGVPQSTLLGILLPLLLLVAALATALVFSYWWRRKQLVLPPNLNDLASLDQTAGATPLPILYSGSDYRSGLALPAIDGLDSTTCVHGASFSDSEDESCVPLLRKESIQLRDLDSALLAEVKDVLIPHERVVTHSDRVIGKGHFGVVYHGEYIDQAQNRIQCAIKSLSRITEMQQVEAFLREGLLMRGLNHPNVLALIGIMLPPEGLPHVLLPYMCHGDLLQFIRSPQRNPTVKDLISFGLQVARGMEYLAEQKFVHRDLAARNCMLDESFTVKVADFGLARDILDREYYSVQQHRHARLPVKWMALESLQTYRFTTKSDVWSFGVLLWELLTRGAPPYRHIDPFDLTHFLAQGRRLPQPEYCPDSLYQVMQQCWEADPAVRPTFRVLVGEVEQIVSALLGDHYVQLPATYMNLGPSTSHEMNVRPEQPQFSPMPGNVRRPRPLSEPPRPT
T25 sequence (Q9Y572 whole entry): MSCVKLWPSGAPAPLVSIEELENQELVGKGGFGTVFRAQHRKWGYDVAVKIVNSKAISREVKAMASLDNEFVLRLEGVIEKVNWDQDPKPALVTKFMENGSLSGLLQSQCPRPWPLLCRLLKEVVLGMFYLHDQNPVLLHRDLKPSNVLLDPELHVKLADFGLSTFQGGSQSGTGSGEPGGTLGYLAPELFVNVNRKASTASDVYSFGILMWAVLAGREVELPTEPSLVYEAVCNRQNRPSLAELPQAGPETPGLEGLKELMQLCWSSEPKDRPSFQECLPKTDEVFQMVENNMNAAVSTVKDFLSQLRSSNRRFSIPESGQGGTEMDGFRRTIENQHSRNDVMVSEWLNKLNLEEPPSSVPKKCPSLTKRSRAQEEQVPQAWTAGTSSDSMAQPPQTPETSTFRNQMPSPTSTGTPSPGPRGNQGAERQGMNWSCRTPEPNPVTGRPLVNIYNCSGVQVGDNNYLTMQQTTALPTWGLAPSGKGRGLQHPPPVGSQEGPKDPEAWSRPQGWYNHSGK

CC(=O)Nc1nc2ccc(-c3cnc(C)c(NC(=O)OC4CCCCC4)c3)cc2s1 [PK68, cyclohexyl (5-(2-acetamidobenzo[d]thiazol-6-yl)-2-methylpyridin-3-yl)carbamate]
Activity% (ALK3/BMPR1A; 1 μM): 103.05%
activity at 1 µM (ALK3/BMPR1A): 105%
Activity% (ARAF; 1 μM): 60.01%
activity at 1 µM (ARAF): 60.5%
Activity% (BRSK2; 1 μM): 98.88%
activity at 1 µM (BRSK2): 100%
Activity% (CAMKK1; 1 μM): 111.65%
activity at 1 µM (CAMKK1): 113%
Activity% (CDK19/cyclin C; 1 μM): 99.34%
activity at 1 µM (CDK19/cyclin C): 101%
Activity% (CDK9/cyclin T2; 1 μM): 88.23%
activity at 1 µM (CDK9/cyclin T2): 90.7%
Activity% (CK1a1L; 1 μM): 103.24%
activity at 1 µM (CK1a1L): 106%
Activity% (DAPK1; 1 μM): 87.16%
activity at 1 µM (DAPK1): 88.5%
Activity% (DLK/MAP3K12; 1 μM): 94.64%
activity at 1 µM (DLK/MAP3K12): 103%
Activity% (DMPK2; 1 μM): 96.42%
activity at 1 µM (DMPK2): 98.3%
Activity% (FLT1/VEGFR1; 1 μM): 100.00%
activity at 1 µM (FLT1/VEGFR1): 100%
Activity% (IRAK1; 1 μM): 90.54%
activity at 1 µM (IRAK1): 92.5%
Activity% (JNK2; 1 μM): 101.11%
activity at 1 µM (JNK2): 104%
Activity% (MAPKAPK5/PRAK; 1 μM): 97.02%
activity at 1 µM (MAPKAPK5/PRAK): 97%
Activity% (MLCK/MYLK; 1 μM): 97.43%
activity at 1 µM (MLCK/MYLK): 99.7%
Activity% (MNK1; 1 μM): 99.13%
activity at 1 µM (MNK1): 100%
Activity% (MSK2/RPS6KA4; 1 μM): 106.42%
activity at 1 µM (MSK2/RPS6KA4): 107%
Activity% (MST4; 1 μM): 101.18%
activity at 1 µM (MST4): 102%
Activity% (NEK5; 1 μM): 95.10%
activity at 1 µM (NEK5): 95.5%
Activity% (PHKg1; 1 μM): 93.46%
activity at 1 µM (PHKg1): 93.6%
Activity% (PKCepsilon; 1 μM): 98.93%
activity at 1 µM (PKCepsilon): 99.5%
Activity% (PKCeta; 1 μM): 90.40%
activity at 1 µM (PKCeta): 92.8%
Activity% (PKG1a; 1 μM): 90.22%
activity at 1 µM (PKG1a): 90.3%
Activity% (PKN1/PRK1; 1 μM): 96.02%
activity at 1 µM (PKN1/PRK1): 97.8%
Activity% (RIPK3; 1 μM): 104.99%
activity at 1 µM (RIPK3): 106%
Activity% (RIPK4; 1 μM): 92.60%
activity at 1 µM (RIPK4): 94.5%
Activity% (RON/MST1R; 1 μM): 99.01%
activity at 1 µM (RON/MST1R): 99.6%
Activity% (ROS/ROS1; 1 μM): 88.56%
activity at 1 µM (ROS/ROS1): 88.9%
Activity% (SNARK/NUAK2; 1 μM): 97.10%
activity at 1 µM (SNARK/NUAK2): 98.7%
Activity% (SRMS; 1 μM): 97.95%
activity at 1 µM (SRMS): 99.7%
Activity% (SRPK1; 1 μM): 99.67%
activity at 1 µM (SRPK1): 100%
Activity% (VRK2; 1 μM): 93.34%
activity at 1 µM (VRK2): 94.4%
Activity% (ZAK/MLTK; 1 μM): 66.51%
activity at 1 µM (ZAK/MLTK): 68.6%
